Data set [1] deals with H295R cells. The data set can be described thus: Cholesterol efflux into serum-free medium with apoA1. The data set is classed as cell-based. As to conditions: serum-free medium containing apoA-I. Here is the method: Cholesterol efflux was measured by replacing the culture medium with serum-free medium supplemented with 5 μg/ml apoA1 (Sigma) and the indicated compounds. After the indicated time, the serum-free medium was collected, and the cholesterol concentration was measured using the fluorometric enzyme-linked assay (Cayman Chemical).
After 48 h, the medium was removed and replaced with 50 μl serum-free medium supplemented with 5 μg/mL apoA1. After the indicated time, the supernatant containing the effluxed cholesterol, was transferred to a new 96-well plate. A cholesterol detection reagent (Cayman Chemical) consisting of cholesterol assay buffer, cholesterol assay detector (10-acetyl-3,7-dihydroxyphenoxazine [ADHP]), horseradish peroxidase, cholesterol oxidase, and cholesterol esterase was added, and the reactions were incubated for 30 min at 37 C. The fluorescence intensities were measured using ex. […] 590 nm. The cholesterol concentrations were calculated by interpolation between the values produced by cholesterol standards that were analyzed in parallel.

For data set [2], the system named is H295R cells. The data set can be described thus: Cellular ATP level (CellTiter-Glo).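 For all read-outs here: ATP quantified by luminescence after lysing the cells in CellTiter-Glo reagent, with compound exposure at 37 °C under 5% CO2.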 Particulars: for ATP depletion at high concentrations of inhibitors of steroidogenesis: alone and in combination with ATR-101, 4 h; for ATP level in combination with ATR-101 versus separately: compound together with ATR-101 at concentrations not cytotoxic separately; for ATP level, compound alone: serum-free medium. Background: ATP-based viability assays read luminescence as a measure of living cells.

Data set [3] deals with T1, MDR1 (Homo sapiens, UniProt P08183).
T1 construct: measured the accumulation of doxorubicin in H295R cells; endogenous in cells; host or cells: H295R adrenocortical carcinoma cells
The data set is described as follows: Doxorubicin accumulation / clearance in H295R cells. The data set is classed as cell-based. Particulars: 25 μM doxorubicin, 20 μM compound, 2 h. Here is the method:
The medium was removed and immediately replaced with 100 μl of fresh media and intracellular doxorubicin fluorescence was visualized by fluorescence microscopy using a 20× objective.

Data set [4] deals with H295R cells. The data set is described as follows: Visualization of cholesterol levels by filipin III binding. The data set is classed as cell-based. As to conditions: for cholesterol level (filipin III binding), compound alone: serum-free medium containing apoA-I, 4 h. Here is the method:
The cells were seeded in 96-well ibiTreat μ-Plates and allowed to adhere for 48 h prior to the start of each experiment. Cholesterol was detected in fixed cells by incubating with 100 μg/ml filipin III at 37 C for 2 h. […] Images were captured using either a 4× or a 60× objective. Cholesterol esterification was visualized by culturing the cells with 1 μM NBD-cholesterol for 2 h following incubation with the indicated compounds. […] Images were captured using either a 20× or a 60× objective.
The medium was removed and immediately replaced with 100 μl of 4% paraformaldehyde and the cells were fixed at room temperature for 20 min. The cells were washed twice with 200 μl PBS. […] The fixed cells were incubated with filipin III at 37 C in the dark for 2 h.

In data set [5] the test system is H295R cells. The data set can be described thus: Cortisol secretion (indirect ELISA). The data set is classed as cell-based. Here is the method: Cortisol secretion was measured by replacing the culture medium with fresh medium containing the indicated compounds. The medium was collected at the indicated times. The cortisol concentration in the medium was measured using indirect ELISA (Arbor Assays).
After 48 h, the medium was removed and replaced with 50 μl of fresh medium. After the indicated incubation time, aliquots of the supernatant ranging from 0.5 to 10 μl were diluted in 50 μl of medium were used to measure the amount of cortisol secreted. Cortisol detection and quantification were performed by indirect ELISA according to the manufacturer's protocol (Arbor Assays #K003).

[6] abbreviates: H295R cells cultured with the compound together with ATR-101, 4 h.
Setting [7] is: H295R cells, serum-free medium containing apoA-I, together with ATR-101.

“Also recorded” adds a separate entry of the source.

As to `CC(C)CCC[C@@H](C)[C@H]1CC[C@H]2[C@@H]3CCC4=CC(=NO)CC[C@]4(C)[C@H]3CC[C@]12C` [olesoxime], the “effect on the inhibition of cholesterol efflux by ATR-101” value in data set [1] (together with ATR-101, listed as Olesoxime) is “no detectable effect on the inhibition of cholesterol efflux”. In addition, the “effect on ATP depletion by ATR-101” value in data set [2] (setting [6]) and in data set [2] (setting [7]) was “reduced ATP depletion by ATR-101” in each case.

As for `NC(=NCc1ccccc1)NC(=O)c1nc(Cl)c(N)nc1N` [benzamil], the doxorubicin accumulation entry in data set [3] is given as “did not increase doxorubicin accumulation”.

On to `CC(=O)O[C@H]1CC[C@@]2(C)C(=CC[C@@H]3[C@@H]2CC[C@]2(C)C(c4cccnc4)=CC[C@@H]32)C1` [abiraterone acetate], for which, in data set [2] (H295R cells), the “ATP depletion at high concentrations of inhibitors of steroidogenesis” value is listed as “enhanced ATP depletion”.

With `CCN(CC)CCO[C@H]1CC[C@@]2(C)C(=CC[C@@H]3[C@@H]2CC[C@]2(C)C(=O)CC[C@@H]32)C1` [U18666A, 3β-(2-diethylaminoethoxy)-5-androsten-17-one], the “cholesterol accumulation in combination with ATR-101 versus separately” value in data set [4] (H295R cells, 20 μM ATR-101 with 5 μM benzamil (1 h) or 8 μM U18666A (serum-free)) was “greater than additive increase in cholesterol accumulation”. For the same compound, the “ATP level in combination with ATR-101 versus separately” value in data set [2] (H295R cells, 4 h) is recorded as “caused ATP depletion at concentrations that had no detectable effect on the ATP level separately”.

rhodamine-123: the “ATP level in combination with ATR-101 versus separately” value in data set [2] (H295R cells, 4 h) was “larger than additive reductions in the ATP levels”; in data set [2] (H295R cells, 4 h, listed as rhodamine 123), “caused ATP depletion at concentrations that did not deplete ATP individually”. Also, in data set [2] (H295R cells, ATR-101 and rhodamine-123 in combination, 4 h), the “fold lower concentration that reduced the ATP level in combination than required separately” value is reported as 5 fold.

Turning to `Cc1c(C)c2c(c(C)c1O)CC[C@@](C)(CCC[C@H](C)CCC[C@H](C)CCCC(C)C)O2` [α-tocopherol], in data set [1] (together with ATR-101), the “effect on the inhibition of cholesterol efflux by ATR-101” value was “did not restore cholesterol efflux”. Moreover, the “effect on the inhibition of cortisol secretion by ATR-101” value in data set [5] (40 μM of the compound together with ATR-101, 4 h) is listed as “neither compound prevented the inhibition of cortisol secretion”. The “effect on ATP depletion by ATR-101” value is recorded as “restored normal or nearly normal ATP levels” in data set [2] (setting [6]) and “restored the ATP level” in data set [2] (setting [7]).

Regarding `CC(=O)N1CCN(c2ccc(OCC3COC(Cn4ccnc4)(c4ccc(Cl)cc4Cl)O3)cc2)CC1` (stereo not shown) [ketoconazole], the “ATP depletion at high concentrations of inhibitors of steroidogenesis” value in data set [2] (H295R cells) is “enhanced ATP depletion”.

On to `CCCCC/C=C\C/C=C\CCCCCCCC(=O)O[C@H]1CC[C@@]2(C)C(=CC[C@H]3[C@@H]4CC[C@H]([C@H](C)CCCC(C)C)[C@@]4(C)CC[C@@H]32)C1` [cholesterol linoleate], for which the “effect on cholesterol accumulation caused by ATR-101” value in data set [4] (H295R cells cultured with the compound together with ATR-101, 4 h or 24 h) is “did not prevent the accumulation of cellular cholesterol”. For the same compound, in data set [2] (H295R cells cultured with the compound together with ATR-101, 24 h), the “effect on ATP depletion by ATR-101” value is on record as “did not prevent”.

On to `COc1ccc(Cl)cc1C(=O)NCCc1ccc(S(=O)(=O)NC(=O)NC2CCCCC2)cc1` [glibenclamide], for which the “cholesterol level (filipin III binding), compound alone” value (from here on “cholesterol level”) in data set [4] (H295R cells) is “lack of cholesterol accumulation”. The “cholesterol level” value in data set [4] (H295R cells, listed as Glibenclamide) was “did not cause cholesterol accumulation”. Also, in data set [1] (4 h), the “cholesterol efflux, compound alone” value is given as “blocked cholesterol efflux”. Moreover, in data set [2] (H295R cells, 4 h), the “ATP level in combination with ATR-101 versus separately” value is on record as “did not cause a larger than additive reduction in the ATP levels; also recorded: did not increase the efficiency of ATP depletion” and the “ATP level, compound alone” value was “did not reduce the ATP level”.

On to `COc1ccc(CCN(C)CCCC(C#N)(c2ccc(OC)c(OC)c2)C(C)C)cc1OC` (stereo not shown) [verapamil], for which the “cholesterol level” value in data set [4] (H295R cells) is on record as “increased the level of cholesterol in intracellular membranes; also recorded: caused cholesterol accumulation”. For the same compound, in data set [5] (cortisol in medium, 4 h or time course), the “cortisol secretion, compound alone” value is reported as “inhibited cortisol secretion”. In addition, in data set [2] (H295R cells, 4 h), the “ATP level, compound alone” value is “did not reduce the ATP levels”.

The record behind these values is patent US10512667B2, “Compositions and methods for treating conditions related to adrenocortical activity and/or excessive steroid production” (The Regents of the University of Michigan, priority 2017, dated 2019).
